Data on one molecule can be found in patent US7632816B2, “Treatment of Alzheimer amyloid deposition” (New York University, priority 2003, dated 2009).

The format of data set [1] is physicochemical. The text has this: Circular dichroism (“CD”) was used to study the secondary structure of peptides in solution as described previously (Golabek et al., “The Interaction Between Apolipoprotein E and Alzheimer's Amyloid β-peptide is Dependent on β-peptide Conformation,” J. Biol. Chem. 271:10602-10606 (1996); Soto et al., “Alzheimer's Soluble β-amyloid is Conformationally Modified by Apolipoproteins in vitro,” Neuroreport 7:721-725 (1996); which are hereby incorporated by reference in their entirety). Aliquots of HFIP treated peptides were diluted in 5 mmol/L Tris buffer (pH 7.0) to obtain a peptide concentration of 100 μmol/L, and were incubated at 37° C. CD was measured at indicated intervals with t=0 being immediately after the peptide was reconstituted. Measurements were on a Jasco J-720 spectropolarimeter (Easton, Md.), equipped with a model CTC-344 circular temperature control system (Neslab Inc., Newington, N.H.), at final protein concentration of 0.15 mg/ml in a cell with 0.1 cm path length. The spectra were recorded at 1 nm intervals over the wavelength range of 190-260 nm at 15° C. Results were expressed as molar ellipticity in units of deg-cm^2-dmol^−1, and the data were analyzed by the Lincomb, convex constraints and neural network algorithms to obtain percentages of different types of secondary structures using Softsec software (Softwood Inc., PA.) (Perczel et al., “Analysis of Circular Dichroism Spectrum of Proteins Using the Convex Constraint Algorithm,” Anal. Biochem. 203:83-93 (1992); Manavalan et al., “Variable Selection Method Improves the Prediction of Protein Secondary Structure from Circular Dichroism,” Anal. Biochem. 167:76-85 (1987); Toumadje et al., “Extending CD Spectra of Proteins to 168nm Improves the Analysis for Secondary Structures,” Anal. Biochem. 200:321-331 (1992); Sreerma et al., “A Self-consistent Method for the Analysis of Protein Secondary Structure from Circular Dichroism,” Anal. Biochem. 209:32-44 (1993); which are hereby incorporated by reference in their entirety). […]

Data set [2] is described as follows: In vivo toxicity test in wild type mice. Conditions: 1 mg i.p. three times per week for four weeks. On the procedure:
Initial testing of Aβ12-28P toxicity in vivo was performed on five wild type C57BL6 mice which received intraperitoneal (“i.p.”) injections of 1 mg of Aβ12-28P diluted in 0.5 mL of sterile PBS three times per week for four weeks. […] Signs of toxicity included change in body weight, physical appearance, measurable clinical signs, unprovoked behavior and response to external stimuli were not noticed. After one month, the animals were sacrificed and samples were taken from the brain, liver, gut, spleen, kidney and heart, for hematoxylin and eosin staining. […] The first administration of Aβ12-28P was begun at four months of age, at which time the APP^K670N/M671L/PS1^M146L mice already have significant numbers of Aβ lesions (Wengenack et al., “Quantitative Histological Analysis of Amyloid Deposition in Alzheimer's Double Transgenic Mouse Brain,” Neurosci. 101:939-944 (2000); McGowan et al., “Amyloid Phenotype Characterization of Transgenic Mice Overexpressing Both Mutant Amyloid Precursor Protein and Mutant Presenilin 1 Transgenes,” Neurobiol. Dis. 6:231-244 (1999), which are hereby incorporated by reference in their entirety). The treatment was continued for four weeks (1 mg i.p. three times per week). Control age-matched APP^K670N/M671L/PS1^M146L mice received injections with vehicle only. There were six Aβ12-28P treated and six vehicle treated APP^K670N/M671L/PS1^M146L mice in this study.

Data set [3] deals with Aβ1-42. The data set can be described thus: Aβ1-42 toxicity in SK-N-SH cells with peptide added without apoE, MTT assay. The format is cell-based, human. The procedure: All experiments were run in triplicate. The results from cell culture neurotoxicity studies were evaluated by one-way analysis of variance, followed by a Dunnett's test as a post hoc analysis.
For orientation: Tetrazolium dyes change colour on reduction, which living cells bring about.

[4] abbreviates: CD immediately after reconstitution, 5 mmol/L Tris pH 7.0.

Structures are written as SMILES. “Also recorded” adds a separate entry of the source. Square brackets hold non-standard residues; d marks the D form. Peptide text beside a SMILES is read from it.

Molecule `CC(=O)N[C@@H](C(=O)N[C@H](Cc1c[nH]cn1)C(=O)N[C@H](Cc1c[nH]cn1)C(=O)N[C@H](CCC(N)=O)C(=O)N[C@H](CCCCN)C(=O)N[C@H](CC(C)C)C(=O)N1CCC[C@@H]1C(=O)N[C@H](Cc1ccccc1)C(=O)N[C@H](Cc1ccccc1)C(=O)N[C@H](C)C(=O)N[C@H](CCC(=O)O)C(=O)N[C@H](CC(=O)O)C(=O)N[C@@H](C(=O)NCC(=O)N[C@H](CO)C(=O)N[C@H](CC(N)=O)C(=O)N[C@H](CCCCN)C(N)=O)C(C)C)C(C)C` [Aβ12-28P] (Ac-[dV][dH][dH][dQ][dK][dL][dP][dF][dF][dA][dE][dD][dV]G[dS][dN][dK]-NH2) displayed a β-sheet content in data set [1] (CD at time=0) of 2%. In addition, in data set [1] (setting [4]), the “random coil, share of the total protein structure” value is given as 59% and the “∝-helix, share of the total protein structure” value is 39%. Also, in data set [2] (observed two more weeks, wild type C57BL6 mice), the survival and condition result was “all remained alive and well”. In data set [2] (wild type mice), the “hematoxylin and eosin histology of brain, heart, liver, gut, spleen, kidneys” value is on record as “did not reveal any pathology”; the “signs of toxicity (body weight, physical appearance, clinical signs, unprovoked behavior, response to external stimuli)” value is “No changes were noted; also recorded: not noticed”. Moreover, the “cell viability, Aβ1-42 incubated with peptide” value in data set [3] (10 μmol/L Aβ1-42 with 10 μmol/L peptide) was “Much more striking improvement in cell viability”. Moreover, the “cell viability, Aβ1-42 incubated with peptide without apoE” value in data set [3] (Aβ1-42 100 μmol/L, peptide 0.5 μmol/L, six days) was “slightly increased cell viability”.
